Assay results from patent publication US7838122B2, “Hydrazide compounds with angiogenic activity” (Rutgers, the State University of New Jersey, priority 2003, dated 2010).

Experiments:
[1] = test system: Rat lung fibroblasts (RLF-6); test: Cytotoxicity, CellTiter96 Aqueous One Solution Cell Proliferation Assay; conditions: RFL-6 cells; serial dilutions 200 to 7.8 mg/mL in SBF; read at 490 nm
Protocol: In vitro biocompatibility studies of PEG-di-DT hydrazide were assessed by analyzing cytotoxicity. […] The CellTiter96® Aqueous One Solution Cell Proliferation Assay (Promega, Madison, Wis.) was used to determine cytotoxicity. Plates were read on a PowerWavex absorbance plate reader, (Bio-Tek Instrumentation, Inc., Highland Park, Vt.).
Cell toxicity studies were carried out in 96-well plates made of tissue-cultured polystyrene, and ˜3×10^3 cells were seeded in each well. Serial dilutions of PEG-di-DT hydrazide were prepared in concentrations ranging from 200 mg/mL to 7.8 mg/mL using SBF as the diluent. Volume of media was kept constant to prevent nutritional advantages. Filter-sterilized dilutions (n=6) were plated in a 96 well plate and controls of media+cells+diluent (to account for affects of the diluent), and media+cells (optimal cell culture conditions) were employed. […] The plates were incubated for 2 hours and read at 490 nm on an absorbance plate reader. Data were analyzed using a two-tailed Student t-test, establishing statistical significance at p<0.05 when compared to cells grown in the cell+media+diluent control.

[2] = test system: Human aortic endothelial cells (HAEC); test: In vitro endothelial cell migration assay (transwell microchemotaxis chamber); type: cell-based
Protocol: Endothelial cells were known to respond to angiogenic factors which cause motility and mitosis, and ultimately the release of growth factors from the cells. Human aortic endothelial cells (HAEC) were cultured at passage 8 and maintained and fed with MCDB 131 media with EGM-2 (Clonetics) until the day of the experiment. Cultures were maintained at 37° C., 5% CO2 and 100% humidity. Comparisons were made of PEG-di-DT Hydrazide activity versus basic FGF-β. The PEG-di-DT hydrazide and basic FGF-β were dissolved in MCDB 131 media. Basic FGF-β was used as a positive control due to its well documented angiogenic activity and extensive testing. Dose-response curves were obtained for PEG-di-DT Hydrazide and basic FGF-β. PEG-dihydrazide, DT monomer, and PEG (Mw=2000), were prepared in MCDB 131 media according to Table 2, and were also tested. Migration assays were performed in a 24-well microchemotaxis chamber (Co-Star) containing transwells of untreated polycarbonate membranes with 8 μm pores. Both the transwells and well bottoms were coated overnight with a 10 μg/mL fibronectin solution (Calbiochem). HAE cells were harvested and resuspended at a concentration of 4.5×10^5 cells/0.1 mL in the corresponding medium. Media was also tested to determine baseline chemotaxis. The bottom wells were filled with 500 μL of test solution, and the transwells were seeded with […] and incubated for 6 hours at 37° C. The cells that migrated through the membrane were quantitated by counting the whole area of the filter using a grid and a (Olympus) microscope at 40× or 20× magnification.

[3] = Scaffold degradation study in SBF at 37° C. (HPLC, TGA, gravimetry)
Protocol: To determine degradation products of porous scaffolds (compositions used: 100/80, 50/40 and 25/20), hydrogel disks of various compositions samples were incubated at 37° C. in SBF at a constant weight to volume ratio of 5 mg/mL, maintaining a constant surface area to volume ratio. Over a one-week period, aliquots were removed and analyzed by HPLC. Buffer solutions were changed every two weeks to maintain sink conditions. Samples were analyzed over a 6-month period for degradation products in the buffer by HPLC, for water uptake by TGA, and mass loss by gravimetry. Aliquots of the degradation media were analyzed by HPLC. The HPLC system consisted of a reversed-phase (C18) column (Perkin-Elmer, Norwalk, Calif.), an LC pump (Model 410; Perkin-Elmer), a UV array detector at 220 nm (Model 235 Perkin-Elmer), an autoinjector (Model ISS-100; Perkin-Elmer), and a computerized data station (Turbochrom; Perking Elmer). A gradient system of water:acetonitrile was used as an eluent to capture each degradation product. Degradation was monitored using DT and DTE standards, and quantitation of degradation products was determined from the area under the signal peaks in the chromatogram after correlating to the standards. […] Mass loss was calculated as the % ratio of weight lost over initial weight. […]

## CC(O)C(=O)[O-].[Na+] (stereo not shown) [Sodium Lactate, sodium lactate]
[1]
  Results of the Cytotoxicity Assay: 3 mg/mL

## FGF-β: growth factor, known angiogenic substance used as positive control
[2]; FIG. 7 / FIG. 8
  dose dependence of cell migration: dose dependent manner
[2]; HAEC, 6 hours, FIG. 6
  minimum effective concentration (cell migration): 0.01 µg/mL
[2]; all concentrations tested
  cell migration response versus media alone: higher cell migration response than the media alone

## CCOC(=O)[C@H](Cc1ccc(O)cc1)NC(=O)CCc1ccc(O)cc1 [DTE, desaminotyrosyl-tyrosine ethyl ester]
[3]; degradation media of hydrogels, SBF, 37° C.
  time by which degradation product was undetectable by HPLC: ≤ 12 weeks

## O=C(CCc1ccc(O)cc1)N[C@@H](Cc1ccc(O)cc1)C(=O)O [DT, desaminotyrosyl-tyrosine free carboxylic acid]
[3]; HPLC, 6-month study
  presence of degradation product during degradation: continued to remain during the course of degradation
[2]; HAEC, 6 hours at 37° C.
  cell migration: Neither PEG 2000 nor DT solutions caused cell migration to occur
